Laboratory results reported in patent US9204653B2, “5-fluoro pyrimidine derivatives” (DOW AGROSCIENCES LLC, priority 2008, dated 2015).
Like-named read-outs stand apart in the source and are kept apart here.

Tested on: Mycosphaerella graminicola; Anamorph: Septoria tritici; Bayer Code SEPTTR
Test: Leaf blotch of wheat, foliar fungicide treatment, one day protectant (1DP) or three day curative (3DC)
Assay type: in vivo, Septoria tritici on wheat plants (variety Yuma)
Conditions: Zymoseptoria tritici
[1] = 24 h, one day protectant (1DP), 25 ppm, rating of percent disease control, read-out: SETTTR 1DP 25 ppm
[2] = 24 h, one day protectant (1DP), rating of percent disease control, read-out: SEPTTR 1DP 100 ppm
[3] = 72 h, three day curative (3DC), 25 ppm, rating of percent disease control, read-out: SEPTTR 3DC 25 ppm
[4] = 72 h, three day curative (3DC), rating of percent disease control, read-out: SEPTTR 3DC 100 ppm
[5] = 24 h, one day protectant (1DP), 25 ppm, percent disease control rating, read-out: SETTTR 1DP 25 ppm
[6] = 24 h, one day protectant (1DP), percent disease control rating, read-out: SEPTTR 1DP 100 ppm
[7] = 72 h, three day curative (3DC), 25 ppm, percent disease control rating, read-out: SEPTTR 3DC 25 ppm
[8] = 72 h, three day curative (3DC), percent disease control rating, read-out: SEPTTR 3DC 100 ppm
[9] = 24 h, one day protectant, 25 ppm, rating of percent disease control, read-out: SETTTR 1DP 25 ppm
[10] = 24 h, one day protectant, rating of percent disease control, read-out: SEPTTR 1DP 100 ppm
[11] = 72 h, three day curative, 25 ppm, rating of percent disease control, read-out: SEPTTR 3DC 25 ppm
[12] = 72 h, three day curative, rating of percent disease control, read-out: SEPTTR 3DC 100 ppm
[13] = 24 h, % disease control rating, one day protectant
[14] = 24 h, one day protectant (1DP), 25 ppm (first 1DP column), percent control rating, read-out: SETTTR 1DP 25 ppm
[15] = 24 h, one day protectant (1DP), 25 ppm as printed (second 1DP column), percent control rating, read-out: SETTTR 1DP 25 ppm
[16] = 72 h, three day curative (3DC), 25 ppm, percent control rating, read-out: SEPTTR 3DC 25 ppm
[17] = 72 h, three day curative (3DC), percent control rating, read-out: SEPTTR 3DC 100 ppm

Row | Compound | pest or weed control at 25 ppm [1] | pest or weed control at 100 ppm [2] | pest or weed control at 25 ppm [3] | pest or weed control at 100 ppm [4] | other results
1 | O=C(Nc1nc(OCc2cccs2)ncc1F)c1ccccc1 [Compound 759] | 51 to 75% | 76 to 100% | 26 to 50% | 76 to 100% | –
2 | CCOC(=O)Nc1nc(OCc2ccc(C)cc2)ncc1F [Compound 490] | 76 to 100% | 76 to 100% | 76 to 100% | 76 to 100% | –
3 | CCCNC(=S)Nc1nc(OCc2cccc(OC)c2)ncc1F [Compound 119] | – | – | – | – | pest or weed control at 25 ppm [5]: 26 to 50%; pest or weed control at 100 ppm [6]: 76 to 100%; pest or weed control at 25 ppm [7]: 51 to 75%; pest or weed control at 100 ppm [8]: 76 to 100%
4 | CN(/C=N/c1nc(OCc2ccc(F)cc2)ncc1F)Cc1ccccc1 [Compound 292] | 76 to 100% | 76 to 100% | 76 to 100% | 76 to 100% | –
5 | OCNc1nc(OCc2cccs2)ncc1F [Compound 196] | 76 to 100% | 76 to 100% | 76 to 100% | 76 to 100% | –
6 | CCOC(=O)Nc1nc(OCc2cccc(C#N)c2)ncc1F [Compound 314] | 76 to 100% | 76 to 100% | 76 to 100% | 76 to 100% | –
7 | Cc1ccc(C(=O)Oc2ncc(F)c(/N=C/N(C)C)n2)c(C)c1 [Compound 422] | 76 to 100% | 76 to 100% | 76 to 100% | 76 to 100% | –
8 | N#Cc1cccc(COc2ncc(F)c(NSc3ccccc3[N+](=O)[O-])n2)c1 [Compound 612] | – | – | – | – | pest or weed control at 25 ppm [9]: 76 to 100%; pest or weed control at 100 ppm [10]: 76 to 100%; pest or weed control at 25 ppm [11]: 76 to 100%; pest or weed control at 100 ppm [12]: 76 to 100%
9 | Fc1ccccc1CNc1nc(OC2CCCCC2)ncc1F [Compound 803] | – | – | – | – | pest or weed control at 50 ppm (24 h, % disease control rating, one day protectant, 50 ppm): 0 to 25%; pest or weed control at 200 ppm [13]: 51 to 75%
10 | COc1cccc(COc2ncc(F)c(NC(=O)c3ccccc3)n2)c1 [Compound 191] | 76 to 100% | 76 to 100% | 76 to 100% | 76 to 100% | –
11 | Nc1nc(COc2ccc(COc3ncc(F)c(N)n3)cc2)ncc1F [Compound 546] | 51 to 75% | 51 to 75% | 51 to 75% | 0 to 25% | –
12 | CN(Cc1ccc(Cl)cc1)c1nc(O)ncc1F [Compound 1068] | – | – | – | – | pest or weed control at 25 ppm [14]: 0 to 25%; pest or weed control at 25 ppm [15]: 0 to 25%; pest or weed control at 25 ppm [16]: 0 to 25%; pest or weed control at 100 ppm [17]: 0 to 25%
13 | Nc1nc(OCc2ccncc2)ncc1F [Compound 856] | – | – | – | – | pest or weed control at 200 ppm [13]: 76 to 100%
14 | CN(C)/C=N/c1nc(OCOC(=O)C2CCCC2)ncc1F [Compound 1084] | – | – | – | – | pest or weed control at 25 ppm [14]: 76 to 100%; pest or weed control at 25 ppm [15]: 76 to 100%; pest or weed control at 25 ppm [16]: 76 to 100%; pest or weed control at 100 ppm [17]: 76 to 100%
15 | COc1cccc(COc2ncc(F)c(NC(=O)Nc3ccccc3F)n2)c1 [Compound 535] | 0 to 25% | 0 to 25% | 0 to 25% | 0 to 25% | –
16 | CC(=O)Nc1nc(OCCc2ccc(Cl)cc2)ncc1F [Compound 624] | – | – | – | – | pest or weed control at 25 ppm [9]: 51 to 75%; pest or weed control at 100 ppm [10]: 76 to 100%; pest or weed control at 25 ppm [11]: 51 to 75%; pest or weed control at 100 ppm [12]: 76 to 100%
17 | CC(C)(C)NC(=O)Nc1nc(O)ncc1F [Compound 975] | – | – | – | – | pest or weed control at 25 ppm [14]: 0 to 25%; pest or weed control at 25 ppm [15]: 0 to 25%; pest or weed control at 25 ppm [16]: 0 to 25%; pest or weed control at 100 ppm [17]: 0 to 25%
18 | Fc1cnc(OCc2cccc(Cl)c2)nc1NCc1cccs1 [Compound 912] | – | – | – | – | pest or weed control at 200 ppm [13]: 76 to 100%
19 | CCCNC(=O)Nc1nc(OCc2cccc(F)c2)ncc1F [Compound 566] | – | – | – | – | pest or weed control at 25 ppm [9]: 0 to 25%; pest or weed control at 100 ppm [10]: 0 to 25%; pest or weed control at 25 ppm [11]: 0 to 25%; pest or weed control at 100 ppm [12]: 0 to 25%
20 | CC(Oc1ncc(F)c(N)n1)c1cccc(Oc2ccccc2)n1 (stereo not shown) [Compound 82] | – | – | – | – | pest or weed control at 25 ppm [5]: 26 to 50%; pest or weed control at 100 ppm [6]: 26 to 50%; pest or weed control at 25 ppm [7]: 0 to 25%; pest or weed control at 100 ppm [8]: 26 to 50%
21 | CNc1nc(OCc2ccc(OC)cc2)ncc1F [Compound 339] | 0 to 25% | 26 to 50% | 26 to 50% | 51 to 75% | –
